# Target: T1, Lsp from E. coli (Escherichia coli, UniProt P00804)
# T1 construct: The full-length Lsp clone from E. coli (residues 1-164); His6 with enterokinase cleavage site (pET19b) (N); made in house; host or cells: E. coli Lemo21 (DE3), pET19b vector
# Assay: Lsp FRET activity assay, IC50 determination
# Format: biochemical
# Settings: not given
# Experimental: […] […] 50 μM Lsp FRET substrate was subsequently added and the rate of substrate hydrolysis was measured by increase in fluorescence (excitation 355 nm, emission 495 nm) in 96-well plates on a PerkinElmer EnVision plate reader or Tecan Safire 2 microplate reader. Michaelis-Menten constants and […] were determined using GraphPad Prism software (GraphPad, Inc.).
# T1 sequence (P00804 whole entry, the tested form may be a part): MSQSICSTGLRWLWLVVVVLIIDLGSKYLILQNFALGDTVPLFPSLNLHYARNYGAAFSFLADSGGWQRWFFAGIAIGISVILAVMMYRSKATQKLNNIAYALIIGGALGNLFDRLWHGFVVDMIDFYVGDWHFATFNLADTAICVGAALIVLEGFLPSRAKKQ
SMILES,"potency against Lsp, in words (SAR)",effect on cleaved substrate fluorescence,IC50
CCC(CC)c1nnc(NC(=O)c2ccc(OC)c(OC)c2)s1 [1b],ablated the potency,–,–
"CCC(CC)c1nnc(NC(=O)c2cc(OC)c(OC(C)C)cc2[N+](=O)[O-])s1 [1i, 4-isopropoxy-5-methoxy-2-nitro-N-(5-(pentan-3-yl)-1,3,4-thiadiazol-2-yl)benzamide]",–,no effect,–
CCC(CC)c1nnc(NC(=O)c2cc(OS(=O)(=O)F)ccc2[N+](=O)[O-])s1 [Sk054-144],–,–,65 µM
CCC(CC)c1nnc(NC(=O)c2ccc(OS(=O)(=O)F)cc2[N+](=O)[O-])s1 [Sk056-45-1],–,–,46 µM
CCC(CC)c1nnc(NC(=O)c2ccc(NCCS(=O)(=O)F)cc2[N+](=O)[O-])s1 [Sk056-45-3],–,–,19 µM
CCC(CC)c1nnc(NC(=O)c2ccc(OS(=O)(=O)F)cc2O)s1 [Sk056-50-4],–,–,290 µM

# Same assay, conditions: FRET-based assay, [Lsp] = 100 nM, mean (± SD); read-out: IC50
row,SMILES,IC50
1,"CCCCOc1cc([N+](=O)[O-])c(C(=O)Nc2nnc(C(CC)CC)s2)cc1OC [1g, 4-butoxy-5-methoxy-2-nitro-N-(5-(pentan-3-yl)-1,3,4-thiadiazol-2-yl)benzamide]",0.54 µM
2,"CCCCCCOc1cc([N+](=O)[O-])c(C(=O)Nc2nnc(C(CC)CC)s2)cc1OC [1h, 4-(hexyloxy)-5-methoxy-2-nitro-N-(5-(pentan-3-yl)-1,3,4-thiadiazol-2-y)benzamide]",0.11 µM
3,"CCC(CC)c1nnc(NC(=O)c2cc(OC)c(OC(C)C)cc2[N+](=O)[O-])s1 [1i, 4-isopropoxy-5-methoxy-2-nitro-N-(5-(pentan-3-yl)-1,3,4-thiadiazol-2-yl)benzamide]",0.21 µM

# Same assay, conditions: FRET-based assay, [Lsp] = 400 nM, mean (± SD); read-out: IC50
row,SMILES,IC50
1,"CCC(CC)c1nnc(NC(=O)c2cc(OC)c(OC)cc2[N+](=O)[O-])s1 [1a, 4,5-dimethoxy-2-nitro-N-(5-(pentan-3-yl)-1,3,4-thiadiazol-2-yl)benzamide]",4.2 µM
2,CCC(CC)c1nnc(NC(=O)c2ccc(OC)c(OC)c2)s1 [1b],110 µM
3,CCCCc1nnc(NC(=O)c2cc(OC)c(OC)cc2[N+](=O)[O-])s1 [1d],29 µM
4,"CCOc1cc([N+](=O)[O-])c(C(=O)Nc2nnc(C(CC)CC)s2)cc1OC [1f, 4-ethoxy-5-methoxy-2-nitro-N-(5-(pentan-3-yl)-1,3,4-thiadiazol-2-yl)benzamide]",1.2 µM

# Same assay, conditions: Table 2, variation of R3; read-out: IC50
row,SMILES,IC50
1,"CCC(CC)c1nnc(NC(=O)c2cc(OC)c(OC)cc2[N+](=O)[O-])s1 [1a, 4,5-dimethoxy-2-nitro-N-(5-(pentan-3-yl)-1,3,4-thiadiazol-2-yl)benzamide]",4.2 ± 1 µM
2,CCCCc1nnc(NC(=O)c2cc(OC)c(OC)cc2[N+](=O)[O-])s1 [1d],29 ± 0.6 µM
3,CCOC(=O)Cc1nnc(NC(=O)c2cc(OC)c(OC)cc2[N+](=O)[O-])s1 [Sk052-27-2],78 µM
4,COc1cc(C(=O)Nc2nnc(C3CCCCC3)s2)c([N+](=O)[O-])cc1OC [Sk052-56],> 400 µM
5,CCCC(CCC)c1nnc(NC(=O)c2cc(OC)c(OC)cc2[N+](=O)[O-])s1 [Sk052-88-1],1.1 µM
6,COc1cc(C(=O)Nc2nnc(CCc3ccccc3)s2)c([N+](=O)[O-])cc1OC [Sk052-88-2],20 µM
7,COc1cc(C(=O)Nc2nnc(C3CC3)s2)c([N+](=O)[O-])cc1OC [Sk052-147-1],208 µM
8,CCCCCc1nnc(NC(=O)c2cc(OC)c(OC)cc2[N+](=O)[O-])s1 [Sk052-147-2],26 µM
9,COC(=O)CCc1nnc(NC(=O)c2cc(OC)c(OC)cc2[N+](=O)[O-])s1 [Sk052-147-3],> 200 µM
10,CCCc1nnc(NC(=O)c2cc(OC)c(OC)cc2[N+](=O)[O-])s1 [Sk054-141-2],26 µM
11,COc1cc(C(=O)Nc2nnc(C(C)C)s2)c([N+](=O)[O-])cc1OC [Sk061-69-1],44 µM

# Same assay, conditions: Table 3; read-out: IC50
row,SMILES,IC50
1,COc1cc(C(=O)Nc2ccc(C(C)C)cn2)c([N+](=O)[O-])cc1OC [Sk056-82-3],> 400 µM
2,COc1cc(C(=O)Nc2ccc(C(C)C)nc2)c([N+](=O)[O-])cc1OC [Sk056-82-4],> 400 µM
3,COc1cc(C(=O)Nc2nnc(C(C)C)s2)c([N+](=O)[O-])cc1OC [Sk061-69-1],44 µM

# Same assay, conditions: Table 4; read-out: IC50
row,SMILES,IC50
1,CCC(CC)c1nnc(NC(=O)c2cc(OC)ccc2[N+](=O)[O-])s1 [Sk052-146-1],3.6 µM
2,CCC(CC)c1nnc(NC(=O)c2ccc(OC)cc2[N+](=O)[O-])s1 [Sk052-146-2],2.2 µM
3,CCC(CC)c1nnc(NC(=O)c2ccccc2[N+](=O)[O-])s1 [Sk054-91-1],11 ± 3 µM
4,CCC(CC)c1nnc(NC(=O)c2ccc(OC)cn2)s1 [Sk054-91-2],> 400 µM
5,CCC(CC)c1nnc(NC(=O)c2ccc(F)cc2[N+](=O)[O-])s1 [Sk054-91-3],7.2 µM
6,CCC(CC)c1nnc(NC(=O)c2ccc(NC(C)=O)cc2[N+](=O)[O-])s1 [Sk054-112-2],160 µM
7,CCC(CC)c1nnc(NC(=O)c2cc(OS(=O)(=O)On3nnc4ncccc43)ccc2[N+](=O)[O-])s1 [Sk054-141-1],120 µM
8,CCC(CC)c1nnc(NC(=O)c2ccc(OC)cc2N)s1 [Sk054-142],11 µM
9,CCC(CC)c1nnc(NC(=O)c2ccccc2C(=O)OC)s1 [Sk056-13-2],12 µM
10,CCC(CC)c1nnc(NC(=O)c2ccccc2C(=O)O)s1 [Sk056-24],270 µM
11,CCC(CC)c1nnc(NC(=O)c2ccccc2CC(=O)OC)s1 [Sk056-82-1],21 µM
12,CCC(CC)c1nnc(NC(=O)c2c(Cl)cccc2[N+](=O)[O-])s1 [Sk056-82-2],260 µM

# Same assay, conditions: Table 5, E = 100 nM; read-out: IC50
row,SMILES,IC50
1,CCC(CC)c1nnc(NC(=O)c2cc(Cl)c(Oc3ccc(NC(=O)OC(C)(C)C)cc3)cc2[N+](=O)[O-])s1 [Sk061-29],0.64 µM
2,CCC(CC)c1nnc(NC(=O)c2cc(Cl)c(Oc3ccc(O)cc3)cc2[N+](=O)[O-])s1 [Sk061-30-1],> 4 µM
3,CCC(CC)c1nnc(NC(=O)c2cc(Cl)c(OC3CCC(C)(C)CC3)cc2[N+](=O)[O-])s1 [Sk061-31-1],0.23 µM
4,CCC(CC)c1nnc(NC(=O)c2cc(Cl)c(OC3CCC(F)(F)CC3)cc2[N+](=O)[O-])s1 [Sk061-31-2],0.58 µM
5,CCC(CC)c1nnc(NC(=O)c2cc(Cl)c(Oc3ccc(N)cc3)cc2[N+](=O)[O-])s1 [Sk061-32],~4 µM
6,CCC(CC)c1nnc(NC(=O)c2cc(Cl)c(OCCCCCCN)cc2[N+](=O)[O-])s1 [Sk061-45],> 4 µM
7,CCC(CC)c1nnc(NC(=O)c2cc(Cl)c(OCCCCCCNC(=O)OC(C)(C)C)cc2[N+](=O)[O-])s1 [Sk061-54],~2.3 µM

# Same assay, conditions: Table 5, [Lsp] = 20 nM; read-out: IC50
row,SMILES,IC50
1,CCC(CC)c1nnc(NC(=O)c2cc(OC)c(OC3CCCC3)cc2[N+](=O)[O-])s1 [Sk052-145-2],0.073 µM
2,CCC(CC)c1nnc(NC(=O)c2cc(OC)c(OCc3ccccc3)cc2[N+](=O)[O-])s1 [Sk054-82-3],2.9 µM
3,CCC(CC)c1nnc(NC(=O)c2ccc(OC3CCCC3)cc2[N+](=O)[O-])s1 [Sk054-116-1],0.4 µM
4,CCC(CC)c1nnc(NC(=O)c2cc(Cl)c(OC3CCCC3)cc2[N+](=O)[O-])s1 [Sk054-116-2],0.11 ± 0.012 µM
5,CCC(CC)c1nnc(NC(=O)c2cc(Cl)c(NC3CCCC3)cc2[N+](=O)[O-])s1 [Sk056-16-1],0.17 µM
6,CCC(CC)c1nnc(NC(=O)c2cc(Cl)c(SC3CCCC3)cc2[N+](=O)[O-])s1 [Sk056-22-1],0.02 µM
7,CCC(CC)c1nnc(NC(=O)c2cc(Cl)c(Oc3ccccc3)cc2[N+](=O)[O-])s1 [Sk056-22-2],0.19 µM
8,CCC(CC)c1nnc(NC(=O)c2cc(Cl)c(OC3CCCCC3)cc2[N+](=O)[O-])s1 [Sk056-29],0.068 µM

# Same assay, conditions: Table 6; read-out: IC50
row,SMILES,IC50
1,CCC(CC)c1nnc(NC(=O)c2cc(Cl)c(OC3CCCC3)cc2[N+](=O)[O-])s1 [Sk054-116-2],0.11 ± 0.012 µM
2,O=C(Nc1nnc(CCCCCCl)s1)c1cc(Cl)c(OC2CCCC2)cc1[N+](=O)[O-] [Sk056-15],3.8 µM
3,COC(=O)CCSCCCCCc1nnc(NC(=O)c2cc(Cl)c(OC3CCCC3)cc2[N+](=O)[O-])s1 [Sk056-26],3.2 µM
4,O=C(O)CCSCCCCCc1nnc(NC(=O)c2cc(Cl)c(OC3CCCC3)cc2[N+](=O)[O-])s1 [Sk056-27],11 µM

# Same assay, conditions: Table 7, linker variation, E = 100 nM; read-out: IC50
row,SMILES,IC50
1,CCC(CC)c1nnc(NC(=O)c2cc(Cl)c(Oc3ccc(NC(=O)OC(C)(C)C)cc3)cc2[N+](=O)[O-])s1 [Sk061-29],0.64 µM
2,CCC(CC)c1nnc(NC(=O)c2cc(Cl)c(OCCCCCCNC(=O)OC(C)(C)C)cc2[N+](=O)[O-])s1 [Sk061-54],2.3 µM
3,CCC(CC)c1nnc(NC(=O)c2cc(Cl)c(OCCNC(=O)OC(C)(C)C)cc2[N+](=O)[O-])s1 [Sk061-68],0.21 µM

# Same assay, conditions: [S]=50 μM, [Lsp]=100 nM
row,SMILES,Hill constant
1,"CCC(CC)c1nnc(NC(=O)c2cc(OC)c(OC(C)C)cc2[N+](=O)[O-])s1 [1i, 4-isopropoxy-5-methoxy-2-nitro-N-(5-(pentan-3-yl)-1,3,4-thiadiazol-2-yl)benzamide]",approximately 1

# Same assay, conditions: biochemical analysis
row,SMILES,manner of Lsp inhibition
1,"CCC(CC)c1nnc(NC(=O)c2cc(OC)c(OC)cc2[N+](=O)[O-])s1 [1a, 4,5-dimethoxy-2-nitro-N-(5-(pentan-3-yl)-1,3,4-thiadiazol-2-yl)benzamide]",non-competitive

# Reference: patent US20200181101A1, “BENZAMIDE INHIBITORS OF BACTERIAL LIPOPROTEIN SIGNAL PEPTIDASE” (The Scripps Research Institute, priority 2017, published 2020)
